Experimental data: patent US20230143345A1, “PHARMACEUTICAL COMPOSITION FOR PREVENTION OR TREATMENT OF DISEASES CAUSED BY SARS-COV-2” (DONG WHA PHARM. CO., LTD., priority 2020, published 2023)
Like-named read-outs stand apart in the source and are kept apart here.

Assays:
SARS-CoV-2 [1] = experiment: microbe, parasite or virus in culture; type: cell-based
SARS-CoV-2 [2] = experiment: microbe, parasite or virus in culture; type: cell-based; details: Severe acute respiratory syndrome coronavirus 2, Vero, read-out: SARS-CoV-2 virus 50% inhibitory ability (IC50 value)
in vitro = details: African green monkey
Vero cell lines = experiment: Cell viability of Vero cells in the SARS-CoV-2 inhibition experiment (Example 2)

`COc1cc2cc3c(c(-c4cc5c(cc4O)OCO5)c2cc1OC)C(=O)OC3` [6′ hydroxyl justicidin-B, 9-(6-hydroxy-benzo[1,3]dioxol-5-yl)-6,7-dimethoxy-3H-naphtho[2,3-c]furan-1-one] showed an IC50 (SARS-CoV-2 [1]; Severe acute respiratory syndrome coronavirus 2, Vero, 24 h, read-out: SARS-CoV-2 virus 50% inhibitory ability (IC50 value)) of 1060 nM, an inhibition at 0.1 µM (SARS-CoV-2 [1]; Severe acute respiratory syndrome coronavirus 2, concentration 0.10 uM, Vero cells, 24 h, read-out: SARS-CoV-2 virus inhibitory ability (%, average ± standard deviation)) of 1.45 ± 1.16% and an inhibition at 0.2 µM (SARS-CoV-2 [1]; Severe acute respiratory syndrome coronavirus 2, concentration 0.20 uM, Vero cells, 24 h, read-out: SARS-CoV-2 virus inhibitory ability (%, average ± standard deviation)) of -1.71 ± 4.34%. For the same compound, the inhibition at 0.39 µM (SARS-CoV-2 [1]; Severe acute respiratory syndrome coronavirus 2, concentration 0.39 uM, Vero cells, 24 h, read-out: SARS-CoV-2 virus inhibitory ability (%, average ± standard deviation)) was 3.39 ± 3.95%, the inhibition at […] (SARS-CoV-2 [1]; Severe acute respiratory syndrome coronavirus 2, concentration 0.78 uM, Vero cells, 24 h, read-out: SARS-CoV-2 virus inhibitory ability (%, average ± standard deviation)) was 35.6 ± 0.69% and the inhibition at 1.56 µM (SARS-CoV-2 [1]; Severe acute respiratory syndrome coronavirus 2, concentration 1.56 uM, Vero cells, 24 h, read-out: SARS-CoV-2 virus inhibitory ability (%, average ± standard deviation)) was 68.6 ± 3.12%. It also gave an inhibition at 3.13 µM (SARS-CoV-2 [1]; Severe acute respiratory syndrome coronavirus 2, concentration 3.13 uM, Vero cells, 24 h, read-out: SARS-CoV-2 virus inhibitory ability (%, average ± standard deviation)) of 95.86 ± 0.86%, an inhibition at 6.25 µM (SARS-CoV-2 [1]; Severe acute respiratory syndrome coronavirus 2, concentration 6.25 uM, Vero cells, 24 h, read-out: SARS-CoV-2 virus inhibitory ability (%, average ± standard deviation)) of 99.74 ± 0.24% and an inhibition at 12.5 µM (SARS-CoV-2 [1]; Severe acute respiratory syndrome coronavirus 2, concentration 12.5 uM, Vero cells, 24 h, read-out: SARS-CoV-2 virus inhibitory ability (%, average ± standard deviation)) of 98.9 ± 1.49%. For the same compound, the inhibition at 25 µM (SARS-CoV-2 [1]; Severe acute respiratory syndrome coronavirus 2, concentration 25 uM, Vero cells, 24 h, read-out: SARS-CoV-2 virus inhibitory ability (%, average ± standard deviation)) was 99.79 ± 0.6%, the inhibition at 50 µM (SARS-CoV-2 [1]; Severe acute respiratory syndrome coronavirus 2, concentration 50 uM, Vero cells, 24 h, read-out: SARS-CoV-2 virus inhibitory ability (%, average ± standard deviation)) was 97.8 ± 2.47% and the “SARS-CoV-2 inhibitory ability (in words)” value (SARS-CoV-2 [1]; Vero cells, comparison at IC50 values with Remdesivir, Lopinavir and Chloroquine) was “remarkably more excellent”. For the same compound, the IC50 (SARS-CoV-2 [2]) was 50 nM, the CC50 (in vitro) was 314000 nM and the “Cell viability (%, average ± standard deviation)” value (Vero cell lines; concentration 0.10 uM) was 100.66 ± 0.73%. For the same compound, the “Cell viability (%, average ± standard deviation)” value (Vero cell lines; concentration 0.20 uM) was 104.63 ± 0.44%, the “Cell viability (%, average ± standard deviation)” value (Vero cell lines; concentration 0.39 uM) was 105.17 ± 0.85% and the “Cell viability (%, average ± standard deviation)” value (Vero cell lines; concentration 1.56 uM) was 107.86 ± 0.60%. For the same compound, the “Cell viability (%, average ± standard deviation)” value (Vero cell lines; concentration 3.13 uM) was 105.46 ± 0.38%, the “Cell viability (%, average ± standard deviation)” value (Vero cell lines; concentration 6.25 uM) was 103.44 ± 1.31% and the “Cell viability (%, average ± standard deviation)” value (Vero cell lines; concentration 12.5 uM) was 101.11 ± 0.36%. For the same compound, the “Cell viability (%, average ± standard deviation)” value (Vero cell lines; concentration 25 uM) was 97.80 ± 1.29% and the “Cell viability (%, average ± standard deviation)” value (Vero cell lines; concentration 50 uM) was 93.38 ± 0.72%.
